According to ChEMBL document CHEMBL5724558, “Image-based profiling of drug vulnerabilities in CRC organoids” (2024):
Values joined by “and” are separate entries in the source; they are usually repeats but may differ in a detail not shown here. Identical values can stand only once.

Assays:
Type in all cases: functional, Homo sapiens
Parameters in all cases: dose or concentration left out as unconfirmed
[1] = tested on: Colon cancer organoid; assay: (§1) Image-based profiling of donated chemical probes and chemogenomic kinase set in O21 CRC organoid. Image analysis is performed on the sum area metric, and the data were normalized to the DMSO control. After imaging the organoid viability is measured using the OneGloEX Luciferase Assay System. The normalized viability data and sum area are reported.
[2] = tested on: Colon cancer organoid; assay: as §1, with “O09” for “O21”
[3] = tested on: Colon cancer organoid; assay: as §1, with “O06” for “O21”

Structure (SMILES) | Cell Viability ([1]; Replication number 1) | Cell Viability ([1]; Replication number 2) | Cell Viability ([2]; Replication number 1) | Cell Viability ([2]; Replication number 2) | Cell Viability ([3]; Replication number 1) | Cell Viability ([3]; Replication number 2)
O=C(NCCN1CCOCC1)c1ccc2c(c1)C(=O)c1ccc(Nc3ccc(F)c(NC(=O)c4ccccc4)c3)cc1CC2 [FS-694] | 104.56% and 105.311% | 87.9959% and 93.3039% | 75.6733% and 93.7852% | 52.7357% and 85.0515% | 84.5729% and 99.5951% | 109.979% and 139.596%
CC(C)(C)OC(=O)N1CCCC1CNC1CCC(c2cc(F)ccc2F)(S(=O)(=O)c2ccc(Cl)cc2)CC1 (configuration not stated) [GSI-NC] | 89.6265% and 62.8719% | 87.5663% and 80.102% | 125.581% and 90.7884% | 108.329% and 85.8708% | 66.8797% and 82.4356% | 76.3317% and 68.2262%
CC(=O)Nc1c(F)cc(C(=O)N[C@H]2CC[C@H](O)CC2)cc1O[C@@H](C)c1ccccc1 [GSK046] | 120.66% and 109.131% | 123.541% and 110.129% | 43.6665% and 86.4699% | 69.7579% and 96.7486% | 114.325% and 118.785% | 117.277% and 127.102%
CNC(=O)c1cc(C(=O)NC2CC2)cn(Cc2ccccc2)c1=O [GSK620] | 98.0477% and 88.9414% | 114.221% and 102.991% | 52.8448% and 80.6552% | 55.7609% and 83.862% | 87.0029% and 102.753% | 87.2683% and 118.693%
COCc1nc2cnc3cc(-c4c(C)noc4C)c(OC[C@H]4CCNC4)cc3c2n1[C@H](C)c1ccccc1 [GSK778] | 115.801% and 111.859% | 99.2147% and 116.757% | 36.9836% and 58.5219% | 32.5027% and 49.1673% | 42.5585% and 78.7045% | 45.6544% and 89.6204%
Cc1cc2c(-c3ccco3)cnc(N[C@@H]3CCN(C)C[C@H]3C(=O)NC3CCCCC3)c2[nH]c1=O [GSK789] | 106.004% and 111.859% | 101.857% and 104.521% | 34.6914% and 67.3378% | 49.9263% and 76.5266% | 45.8732% and 77.9757% | 46.7874% and 82.8928%
Cc1cc2c(-c3ccco3)cnc(N[C@H]3CCN(C)C[C@@H]3C(=O)NC3CCCCC3)c2[nH]c1=O [GSK791] | 103.348% and 100.946% | 100.095% and 111.149% | 46.4952% and 92.4722% | 100.727% and 114.988% | 106.466% and 102.024% | 100.388% and 101.634%
CNC(=O)c1cc(C(=O)N[C@H]2[C@@H]3COC[C@@H]32)cc2c1O[C@@H](CF)[C@@H]2c1ccccc1 [GSK943] | 93.124% and 115.133% | 103.782% and 108.09% | 64.3424% and 103.726% | 87.7458% and 93.3783% | 114.013% and 124.372% | 80.0063% and 92.9841%
CNC(=O)c1cc(C(=O)N[C@H]2[C@@H]3COC[C@@H]32)cc2c1O[C@H](CF)[C@H]2c1ccccc1 [GSK973] | 110.582% and 117.861% | 99.9706% and 95.8532% | 33.6063% and 74.8406% | 64.0142% and 82.8707% | 85.8672% and 112.47% | 108.347% and 115.089%
O=C(O)c1ccc(-c2c[nH]c3ncc(-c4ccccc4)cc23)cc1C1CCCC1 [GSK-650394] | 104.512% and 92.3751% | 123.401% and 109.943% | 86.6407% and 76.4679% | 121.957% and 104.927% | 96.4947% and 115.731% | 112.452% and 109.917%
COc1ccc(COc2ccc(Cc3cnc(N)nc3N)cc2OC)cc1 [GW632580X] | 84.7531% and 94.7735% | 111.284% and 94.9982% | 97.2833% and 91.2576% | 140.582% and 107.98% | 58.2611% and 105.272% | 114.527% and 102.005%
CCOc1cc2ncc(C#N)c(Nc3ccc(OCc4cccc(F)c4)c(Cl)c3)c2cc1NC(=O)/C=C/CN(C)C [HKI-357] | 27.4097% and 41.0314% | 48.8208% and 68.5139% | 14.2588% and 15.3343% | 12.8508% and 14.4694% | 2.387% and 8.346% | 3.908% and 9.337%
